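These data come from cells grown in 96-well plates and exposed to compound for 48 hours at five concentrations. Here, GI50 denotes the concentration required for 50% inhibition of growth.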 Activity calls are given as the source filed them. Rule as the data show it: active = GI50 up to about 1.1 µM and inactive = higher.
Assays:
Test in all cases: NCI tumour cell line growth inhibition, 48 h
[1] = system: OVCAR-8
[2] = system: A498
[3] = system: ACHN
[4] = system: NCI-H226
[5] = system: HL-60
[6] = system: SF-539
[7] = system: 786-0
[8] = system: SF-295
[9] = system: NCI-H460
[10] = system: HOP-92
[11] = system: OVCAR-4
[12] = system: SK-MEL-5
[13] = system: UACC-257
[14] = system: SNB-75
[15] = system: COLO 205
[16] = system: UO-31
[17] = system: HOP-62
[18] = system: SK-MEL-28
[19] = system: HCT-15
[20] = system: LXFL 529

SMILES | GI50 [1] | GI50 [2] | GI50 [3] | GI50 [4] | GI50 [5] | GI50 [6] | GI50 [7] | GI50 [8] | GI50 [9] | GI50 [10] | GI50 [11] | GI50 [12] | GI50 [13] | GI50 [14] | GI50 [15] | GI50 [16] | GI50 [17] | GI50 [18] | GI50 [19] [µM] | GI50 [20]
Clc1ccccc1/C=C/c1nsc(/C=C/c2ccccc2Cl)n1 | 94 µM (inactive) | > 100 µM (inactive) | 50.4 µM (inactive) | > 100 µM (inactive) | 21.6 µM (inactive) | 78.5 µM (inactive) | 19 µM (inactive) | 54 µM (inactive) | 21.4 µM (inactive) | > 100 µM (inactive) | 81.7 µM (inactive) | 36.1 µM (inactive) | 26.5 µM (inactive) | 71.4 µM (inactive) | 47.4 µM (inactive) | > 100 µM (inactive) | 36.6 µM (inactive) | > 100 µM (inactive) | 38 | 
O=C1C(Cl)C(c2ccc([N+](=O)[O-])cc2)N1n1cnc2ccccc2c1=O (centres undefined) | 19.1 µM (inactive) |  | 61.5 µM (inactive) | 51.6 µM (inactive) |  |  | 20.7 µM (inactive) | 17.6 µM (inactive) | 17.2 µM (inactive) |  | 5.64 µM (inactive) | 57 µM (inactive) | > 100 µM (inactive) | 13.9 µM (inactive) | > 100 µM (inactive) | 71 µM (inactive) | 34.5 µM (inactive) | 24.1 µM (inactive) | > 100 | 22.7 µM (inactive)
Cc1ccc2nc(C(C)C)c(=O)[nH]c2c1 | 26.1 µM (inactive) | > 100 µM (inactive) | > 100 µM (inactive) | > 100 µM (inactive) | > 100 µM (inactive) | 85.1 µM (inactive) | 52.7 µM (inactive) | 71 µM (inactive) | > 100 µM (inactive) | > 100 µM (inactive) | 71.9 µM (inactive) | > 100 µM (inactive) | > 100 µM (inactive) | 42.4 µM (inactive) | > 100 µM (inactive) | > 100 µM (inactive) | 17.2 µM (inactive) | > 100 µM (inactive) | > 100 | 
C=C[C@H]1CN2CCc3c([nH]c4cc(O)ccc34)[C@@H]2C[C@@H]1C[C@H]1c2[nH]c3ccccc3c2CCN1C | 6.11 µM (inactive) | 2.16 µM (inactive) | 5.28 µM (inactive) | 18.7 µM (inactive) | 1.04 µM (active) | 1.82 µM (inactive) | 1.84 µM (inactive) | 4.53 µM (inactive) | 2.07 µM (inactive) | 3.39 µM (inactive) | 7.03 µM (inactive) | 1.73 µM (inactive) | 1.95 µM (inactive) | 2.11 µM (inactive) | 1.77 µM (inactive) | 2.09 µM (inactive) | 4.45 µM (inactive) | 1.78 µM (inactive) | 2.54 | 
O=[N+]([O-])c1cc(Br)cc2cc(Cl)cnc12 | 62.4 µM (inactive) | 75.7 µM (inactive) | > 100 µM (inactive) | > 100 µM (inactive) | 57.8 µM (inactive) | > 100 µM (inactive) | > 100 µM (inactive) | 70.6 µM (inactive) | > 100 µM (inactive) | 1.02 µM (active) | > 100 µM (inactive) | 81.8 µM (inactive) | > 100 µM (inactive) | 31.8 µM (inactive) | > 100 µM (inactive) | > 100 µM (inactive) | > 100 µM (inactive) | > 100 µM (inactive) | > 100 | 
CCOC(=O)c1c2c(n(C)c1-c1ccccc1)C(=O)C(C)=CC2=O | 5.7 µM (inactive) | 18.2 µM (inactive) | 7.28 µM (inactive) | 11 µM (inactive) | 2.94 µM (inactive) | 4.05 µM (inactive) | 15.2 µM (inactive) | 19 µM (inactive) | 20.8 µM (inactive) | 2.07 µM (inactive) | 7.05 µM (inactive) | 9.62 µM (inactive) | 2.61 µM (inactive) | 14.9 µM (inactive) | 1.57 µM (inactive) | 12.2 µM (inactive) | 17.3 µM (inactive) | 13.9 µM (inactive) | 3.36 | 
CN(/N=C(\C(=O)O)c1ccccc1)C1=NCCCN1 | > 100 µM (inactive) | > 100 µM (inactive) | > 100 µM (inactive) | > 100 µM (inactive) | > 100 µM (inactive) | > 100 µM (inactive) | > 100 µM (inactive) | > 100 µM (inactive) | > 100 µM (inactive) | 80.9 µM (inactive) | > 100 µM (inactive) | > 100 µM (inactive) | > 100 µM (inactive) | > 100 µM (inactive) | > 100 µM (inactive) | > 100 µM (inactive) | > 100 µM (inactive) | > 100 µM (inactive) | > 100 | 
COc1c(C(C)C)cc2c3c1OC(=O)[C@@]31CCCC(C)(C)C1CC2 (some centres undefined) | 17.7 µM (inactive) |  | 52.5 µM (inactive) | 4.92 µM (inactive) | 14.2 µM (inactive) | 14 µM (inactive) | 46.7 µM (inactive) | 24.5 µM (inactive) | 40.7 µM (inactive) |  |  | 11.2 µM (inactive) | 20.3 µM (inactive) | 22 µM (inactive) | 17.3 µM (inactive) | 11.7 µM (inactive) | 39.4 µM (inactive) | 27.4 µM (inactive) | 55.7 | 16.6 µM (inactive)
CC(=O)O[C@H]1CC[C@@]2(C)C(=CC[C@H]3[C@@H]4CC[C@H](c5cc(C(F)(F)F)n(C(C)=O)n5)[C@@]4(C)CC[C@@H]32)C1 | 5.57 µM (inactive) | 10.6 µM (inactive) | 7.8 µM (inactive) | 3.24 µM (inactive) | 3.5 µM (inactive) | 6.47 µM (inactive) | 5.38 µM (inactive) | 4.85 µM (inactive) | 2.63 µM (inactive) | 1.22 µM (inactive) | 3.31 µM (inactive) | 3.45 µM (inactive) | 5.52 µM (inactive) | 8.22 µM (inactive) | 3.62 µM (inactive) | 1.67 µM (inactive) | 8.2 µM (inactive) | 13.6 µM (inactive) | 5.64 | 
COc1cc2nc(-c3cccs3)nc(N3C(c4cc(OC)c(OC)c(OC)c4)=NNC(=O)c4ccccc43)c2cc1OC | 3.4 µM (inactive) | > 100 µM (inactive) | 44.1 µM (inactive) | > 100 µM (inactive) | 54.7 µM (inactive) | 21.8 µM (inactive) | 35.6 µM (inactive) | 17.9 µM (inactive) | 4.82 µM (inactive) | 78.5 µM (inactive) | 13.9 µM (inactive) | 34.9 µM (inactive) | 35.3 µM (inactive) | 25.7 µM (inactive) | > 100 µM (inactive) | 27.4 µM (inactive) | 66.8 µM (inactive) | 21.9 µM (inactive) | 13.5 | 
CC(=O)Nc1ccc(C2CC(c3ccc([N+](=O)[O-])cc3)=Nc3ccccc3[S+]2[O-])cc1 (centres undefined) | 30.5 µM (inactive) |  | 20.6 µM (inactive) | 20.4 µM (inactive) | 17.6 µM (inactive) | 24.6 µM (inactive) | 9.64 µM (inactive) | 28.8 µM (inactive) | 23.3 µM (inactive) |  | 18.9 µM (inactive) | 19.6 µM (inactive) | 28.6 µM (inactive) | 16.9 µM (inactive) | 21.8 µM (inactive) | 16.7 µM (inactive) | 22.1 µM (inactive) | 19.6 µM (inactive) | 20.6 | 16.7 µM (inactive)
Cc1nnc2n1-c1ccccc1N(Cc1ccccc1)CC2 | 56 µM (inactive) | 93.8 µM (inactive) | 49.5 µM (inactive) | 46.8 µM (inactive) | 23.6 µM (inactive) | > 100 µM (inactive) | 87.7 µM (inactive) | 75 µM (inactive) | > 100 µM (inactive) | 9.55 µM (inactive) | 71.9 µM (inactive) | 38.2 µM (inactive) | 63.1 µM (inactive) | 52.6 µM (inactive) | 38.1 µM (inactive) | 34.5 µM (inactive) | > 100 µM (inactive) | > 100 µM (inactive) | 45.7 | 
COC(=O)C(CCC1C=CCC1)/N=C\c1ccccc1 (centres undefined) | 68.2 µM (inactive) | 81.5 µM (inactive) | 73.5 µM (inactive) | 56.8 µM (inactive) | 36.8 µM (inactive) | > 100 µM (inactive) | 66.2 µM (inactive) | 57.7 µM (inactive) | 44 µM (inactive) | 67 µM (inactive) | 54.7 µM (inactive) | 32.1 µM (inactive) | 38.2 µM (inactive) | 93.3 µM (inactive) | 48.8 µM (inactive) | 51.9 µM (inactive) | 68.5 µM (inactive) | > 100 µM (inactive) | 43.6 | 
O=C(/C=C/c1ccsc1)c1ccco1 | 11.7 µM (inactive) | 5.41 µM (inactive) | 10.8 µM (inactive) | 28.1 µM (inactive) | 7.26 µM (inactive) | 14.4 µM (inactive) | 12.1 µM (inactive) | 14.2 µM (inactive) | 14.3 µM (inactive) | 14.9 µM (inactive) | 5.24 µM (inactive) | 15.4 µM (inactive) | 17.3 µM (inactive) | 12.8 µM (inactive) | 17.6 µM (inactive) | 8.87 µM (inactive) | 14.9 µM (inactive) | 12.8 µM (inactive) | 7.24 | 
Cc1c([N+](=O)[O-])oc2ccc3ccccc3c12 | 26.1 µM (inactive) | 22.8 µM (inactive) | 16.2 µM (inactive) | > 100 µM (inactive) | 3.18 µM (inactive) | 28.2 µM (inactive) | 18.1 µM (inactive) | 58.1 µM (inactive) | 3.74 µM (inactive) | > 100 µM (inactive) | 47.5 µM (inactive) | 5.4 µM (inactive) | 78 µM (inactive) | 28.5 µM (inactive) | 6.79 µM (inactive) | 34.6 µM (inactive) | > 100 µM (inactive) | > 100 µM (inactive) | 19 | 
